Assay results reported in ChEMBL document CHEMBL4433265, “Discovery of human lactate dehydrogenase 5 inhibitors (hLDH5) with anti-lung cancer activity through an in silico method and biological validation” (Bioorg Med Chem Lett, 2019).
The source made the active and inactive calls. The calls are words filed in the database; no cut-off is given here.

Assays:
NCI-H1975 [1] = assay: Growth inhibition of human NCI-H1975 cells at 50 uM incubated for 72 hrs by MTT assay; assay type: functional; conditions: for inhibition of growth at 50 µM: NCI-H1975, 72 h, read-out: GI
[2] = molecular target: T1, L-lactate dehydrogenase A chain (Homo sapiens, UniProt P00338); assay: Inhibition of His-tagged human LDHA at 10 uM incubated for 10 mins using NADH and pyruvate by microplate reader based assay
A549 = assay: Growth inhibition of human A549 cells at 50 uM incubated for 72 hrs by MTT assay; assay type: functional; conditions: for inhibition of growth at 50 µM: A549, 72 h, read-out: GI
NCI-H1975 [3] = assay: Growth inhibition of human NCI-H1975 cells at 10 uM under hypoxic conditions by IncuCyte zoom live cell analysis; assay type: functional, cell-based
NCI-H1975 [4] = assay: Growth inhibition of human NCI-H1975 cells under normal oxygenated conditions by IncuCyte zoom live cell analysis; assay type: cell-based
[5] = molecular target: T1, L-lactate dehydrogenase A chain; assay: Inhibition of LDHA in human NCI-H1975 cells assessed as reduction in lactate production incubated for 4 hrs; assay type: cell-based
[6] = molecular target: T1, L-lactate dehydrogenase A chain; assay: Binding affinity to His-tagged human LDHA in presence of NAD+ by isothermal titration calorimetry
NCI-H1975 [7] = assay: Growth inhibition of human NCI-H1975 cells at 10 uM under normal oxygenated conditions by IncuCyte zoom live cell analysis; assay type: cell-based; conditions: nci-h1975, 10 µM
[8] = molecular target: T1, L-lactate dehydrogenase A chain; assay: Inhibition of His-tagged human LDHA incubated for 10 mins using NADH and pyruvate by microplate reader based assay
[9] = molecular target: T1, L-lactate dehydrogenase A chain; assay: Binding affinity to His-tagged human LDHA in absence of NAD+ by isothermal titration calorimetry
NCI-H1975 [10] = assay: Growth inhibition of human NCI-H1975 cells under hypoxic conditions by IncuCyte zoom live cell analysis; assay type: functional, cell-based

Cc1ncn(CC(=O)N2CCC(Oc3cncc(N(C)C)n3)C2)c(=O)c1C (stereo not drawn)
growth inhibition (GI) (NCI-H1975 [1]): inactive
inhibition [2]: 66.3%
growth inhibition (GI) (A549): inactive

COc1ccccc1OCC(=O)NC1CCC(Oc2nc(C)cc(C)n2)CC1 (stereo not drawn)
inhibition of growth at 50 µM (NCI-H1975 [1]): 45.2%
inhibition [2]: 78.5%
inhibition of growth at 50 µM (A549): 23.3%

COc1cc(=O)n2c(c1CCCc1cc(OC)c(OC)c(OC)c1)CCC2
growth inhibition (GI) (NCI-H1975 [1]): inactive
inhibition [2]: 25.7%
growth inhibition (GI) (A549): inactive

N#Cc1cccnc1N1CCC(CNC(=O)C(=O)Nc2cccc(C(F)(F)F)c2)CC1
inhibition of growth at 50 µM (NCI-H1975 [1]): 25.9%
inhibition [2]: inactive
inhibition of growth at 50 µM (A549): 33.5%

O=C(NCC(=O)N1CCC(Cc2nc(C3CC3)no2)CC1)c1ccccc1
growth inhibition (GI) (NCI-H1975 [3]): Active
IC50 (NCI-H1975 [4]): 36.5 µM
inhibition [5]: Dose-dependent effect
Kd [6]: 1.02 µM
inhibition of growth at 50 µM (NCI-H1975 [1]): 58.7%
growth inhibition (GI) (NCI-H1975 [7]): Non-Toxic
EC50 [8]: 0.7 µM
inhibition [2]: 95.2%
inhibition of growth at 50 µM (A549): 69.3%
Kd [9]: 43.2 µM
IC50 (NCI-H1975 [10]): 5.7 µM

O=C1N[C@](c2ccc(N3CCOCC3)cc2)(c2ccsc2)CC(O)=C1Sc1ccccc1Cl
inhibition of growth at 50 µM (NCI-H1975 [1]): 100%
inhibition [2]: 100%
inhibition of growth at 50 µM (A549): 100%

O=C(c1cc2n(n1)CCCC2)N1CCN(C(=O)C2(c3cccs3)CCCC2)CC1
growth inhibition (GI) (NCI-H1975 [1]): inactive
inhibition [2]: inactive
growth inhibition (GI) (A549): inactive

O=C(c1cc2n(n1)CCCO2)N1CCC(N2CCN(c3ncccc3C(F)(F)F)CC2)CC1
growth inhibition (GI) (NCI-H1975 [1]): inactive
inhibition [2]: inactive
growth inhibition (GI) (A549): inactive

O=C(CNC1CCN(c2ncc(F)cn2)CC1)COCc1ccccc1
inhibition of growth at 50 µM (NCI-H1975 [1]): 39.8%
inhibition [2]: 45.8%
inhibition of growth at 50 µM (A549): 55.3%

COc1cccc(OCC(=O)Nc2ccc3c(c2)NC(=O)C(C)(C)CO3)c1
inhibition of growth at 50 µM (NCI-H1975 [1]): 15.3%
inhibition [2]: inactive
inhibition of growth at 50 µM (A549): 26.9%
